Data: patent publication US10954513B2, “RNA-guided transcriptional regulation and methods of using the same for the treatment of back pain” (UNIVERSITY OF UTAH RESEARCH FOUNDATION, priority 2015, dated 2021)
Values belong to the substance of their own block, whether it stands above or below them.

Experiments:
[1] = system: TNFR1; assay: Human NP cell CRISPRi: TNFR1 knockdown (qRT-PCR); format: cell-based; settings: primary human NP cells
Experimental: Quantitative RT-PCR was performed to identify TNFR1 knockdown in these primary human NP cells. Additionally, flow-cytometry was performed to determine transduction efficiency in human NP cells.

[2] = target: AKAP 150 (rat) (UniProt P24587); assay: cell-based or functional assay
[3] = target: human IL-6 (human) (UniProt P05231); assay: cell-based or functional assay
[4] = system: NF-κB activity in HEK293T cells; assay: NF-κB activity assay in HEK293T cells dosed with TNF-α; format: cell-based, human
Experimental: HEK293T cells and hADMSCs were transduced with the earlier mentioned NF-κB reporter vector and analyzed for changes in NF-κB activity in response to dosing cells with TNF-α/IL-1β (RnD systems, ProSpec). To further describe, cells expressing the NF-κB reporter were plated in white 96-well plates (HEK293T cells at 25,000 cells/well and hADMSCs at 5000 cells/well) and allowed to attach overnight. The next day cells were dosed with the appropriate amounts of inflammatory cytokines (0, […], 1, and/or 10 ng/mL of TNF-α/IL-1β) for 24 hours. At 24 hours luminescence corresponding to NF-κB activity was measured in one set of cells using the bright glo assay (Promega) and cell number was measured on another set of cells under the same treatment using the real-time glo assay (Promega). Changes in NF-κB activity were quantified as a fold change in luminescence relative to the no dose control for each cell type, with NF-κB activity normalized to cell number.

[5] = system: TNFR1; assay: Guide RNA screening in HEK293T cells (qPCR), TNFR1; format: cell-based, human; settings: HEK293T cells expressing dCas9-KRAB, 48 hours post transfection, relative to non-target gRNA
Text: (§1) Using the UCSC genome browser (GRCh37/hg19), the 5-UTR and the promoter region, 1000 base pairs upstream were selected and input into the CRISPR design tool (crispr.mit.edu). This tool outputs 20 bp gRNAs that are followed on their 3′ end by the PAM sequence NGG, which is specific to the CRISPR-Cas9 system derived from Streptococcus pyogenes. Additionally, the CRISPR design tool scores the potential gRNA sequences based on the number of off-target sites they have and how many are within genes (e.g., higher score means less off-target sites). […]
(§2) Total RNA was harvested from cells using Purelink RNA mini kit (Ambion). […] Changes in gene expression were expressed as fold changes in mRNA expression relative to the nontarget control, and normalized to GAPDH mRNA expression, using the ΔΔCt method.
(§3) HEK293T cells stably expressing dCas9-KRAB GFP were seeded in 6-well plates at a density of 600,000 cells/well in DMEM-HG with 10% FBS. […] Subsequently each sample was then run through taqman qPCR using primers for TNFRSF1A or IL1R1 and housekeeping gene GAPDH to quantify downregulation of each gene by each guide. Gene downregulation was quantified using the ΔΔCt method to characterize fold change relative non-target gRNA expressing cells.

[6] = system: IL1R1; assay: Guide RNA screening in HEK293T cells (qPCR), IL1R1; format: cell-based, human; settings: HEK293T cells expressing dCas9-KRAB, 48 hours post transfection, relative to non-target gRNA
Text: as §1, §2, §3

Sequence of UniProt P24587 (P24587 whole entry): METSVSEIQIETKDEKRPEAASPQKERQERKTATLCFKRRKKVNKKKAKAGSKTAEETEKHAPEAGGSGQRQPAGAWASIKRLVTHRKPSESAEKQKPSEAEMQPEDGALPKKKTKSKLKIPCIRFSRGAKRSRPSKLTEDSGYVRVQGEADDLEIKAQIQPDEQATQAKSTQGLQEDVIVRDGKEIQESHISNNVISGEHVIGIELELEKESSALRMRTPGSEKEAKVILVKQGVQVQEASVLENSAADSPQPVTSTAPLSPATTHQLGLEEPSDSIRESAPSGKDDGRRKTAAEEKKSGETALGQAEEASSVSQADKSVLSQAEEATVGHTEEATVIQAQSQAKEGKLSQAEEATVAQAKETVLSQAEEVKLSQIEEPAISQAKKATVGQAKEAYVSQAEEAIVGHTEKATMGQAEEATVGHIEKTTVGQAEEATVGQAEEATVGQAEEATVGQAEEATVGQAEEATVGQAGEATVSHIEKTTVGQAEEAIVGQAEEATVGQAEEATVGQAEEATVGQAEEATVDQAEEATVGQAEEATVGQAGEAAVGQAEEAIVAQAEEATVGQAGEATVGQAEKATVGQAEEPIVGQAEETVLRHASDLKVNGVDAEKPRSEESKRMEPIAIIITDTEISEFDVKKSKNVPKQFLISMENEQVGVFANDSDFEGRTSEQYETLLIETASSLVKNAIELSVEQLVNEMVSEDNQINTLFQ
Sequence of UniProt P05231 (P05231 30-212 limits assumed): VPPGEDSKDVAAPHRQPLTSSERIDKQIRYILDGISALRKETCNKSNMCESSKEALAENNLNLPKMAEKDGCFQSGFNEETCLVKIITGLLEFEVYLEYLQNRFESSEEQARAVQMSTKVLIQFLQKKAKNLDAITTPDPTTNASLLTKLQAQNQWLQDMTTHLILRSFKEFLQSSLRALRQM

- percentage of neurons firing at 39° C. in degenerative IVD conditioned media [2]: 15.5%
Substance: AKAP inhibitor peptide St-Ht31 (Promega)

- T50 of neuron firing (Boltzmann fit) [3]: 38.2 ° C.
- maximum firing response of DRG neurons [3]: 66%
Substance: mouse isotype control antibody (Life Technologies)

- percentage of neurons firing at 39° C. in degenerative IVD conditioned media [2]: 61.9%
Substance: control peptide St-Ht31P (Promega)

The remaining lines, values behind:

Substance: 5′-AUAAGCGUCCGACACAUGAU-3′ (expressed or natural sequence) [gRNA 4 for TNFR1, 82]
- TNFR1 knockdown in NP cells ([1]; with dCas9-KRAB): 55%
- TNFR1 knockdown in NP cells ([1]; with dCas9 alone): no knockdown

Substance: 5′-CAGUGUUGCAACAGCGGGAC-3′ (expressed or natural sequence) [gRNA 1 for TNFR1, 79]
- NF-κB activity at lowest dose ([4]; 0.15 ng/mL TNF-α): no significant increase in NF-κB activity
- decreases in NF-κB activity ([4]; 24 hours of dosing with 0, 0.15, 1, and 10 ng/mL TNF-α): up to 95%
- TNFR1 gene downregulation [5]: up to 87%

Substance: 5′-GGAGUCGCCAACUCAAUUCG-3′ (expressed or natural sequence) [gRNA 1 for IL1R1, 84]
- IL1R1 gene downregulation [6]: 67%
